Test results reported in patent US20220062418A1, “TUMOR TARGETING VITAMIN B12 DERIVATIVES FOR X-RAY ACTIVATED CHEMOTHERAPY” (THE TRUSTEES OF DARTMOUTH COLLEGE, priority 2018, published 2022).

Tested on: tumor stroma
Experiment: Losartan effect on stroma and perfusion in two tumor models
Format: in vivo
Conditions: preliminary data
Excerpt: In an alternative embodiment, we add transcobalamin II to enhance uptake of cobalamin derivatives into tissue. […] Drug delivery is thought to be impeded by the dense stroma of pancreatic adenocarcinoma, and so delivery of cobalamin conjugates could be limited by this issue. […] In an alternative embodiment we treat with Losartan for 10 days prior to cobalamin-drug conjugate treatment to enhance the delivery of this platform to the PDAC tumor stroma.

## CCCCc1nc(Cl)c(CO)n1Cc1ccc(-c2ccccc2-c2nn[nH]n2)cc1 [Losartan]
  microvessel perfusion: increases in microvessel perfusion
  stromal formation: reduce stromal formation
